Measured values from the supplement of paper PMC10307832.

Experiments:
Experiment in all cases: relative viability (nuclei count vs DMSO), 5 days (fraction); higher = more cells survive
Trametinib + Alpelisib = compound: CC(=O)Nc1cccc(-n2c(=O)n(C3CC3)c(=O)c3c(Nc4ccc(I)cc4F)n(C)c(=O)c(C)c32)c1 [Trametinib] + Cc1nc(NC(=O)N2CCC[C@H]2C(N)=O)sc1-c1ccnc(C(C)(C)C(F)(F)F)c1 [Alpelisib] (partner 2 µM)
Procedure, shortened: (§1)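 Lung cancer cell lines in 1536-well plates were dosed by pin tool the day after seeding, either with one drug alone or with a fixed anchor-drug dose plus five library-drug doses (not always all listed) in √10 steps. After 5 days, cells were fixed and their nuclei stained in one step (final 0.05% Triton X-100, 1% formaldehyde, 1 ug/ml Hoechst), then counted on 4× images. Relative viability is the nuclei count in treated wells divided by that in vehicle wells. Values are medians of duplicate plates.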

Trametinib + Phenformin = compound: CC(=O)Nc1cccc(-n2c(=O)n(C3CC3)c(=O)c3c(Nc4ccc(I)cc4F)n(C)c(=O)c(C)c32)c1 [Trametinib] + N=C(N)NC(=N)NCCc1ccccc1 [Phenformin] (partner 250 µM)
Procedure, shortened: as §1

[1] = compound: CN1C=C(C2=CC=CC=C21)/C=C\3/C4=C(C=CC=N4)NC3=O + C[C@@H](Oc1cc(-c2cnn(C3CCNCC3)c2)cnc1N)c1c(Cl)ccc(F)c1Cl [Crizotinib] (partner 1 µM)
Procedure, shortened: as §1

[2] = compound: CN1C=C(C2=CC=CC=C21)/C=C\3/C4=C(C=CC=N4)NC3=O + O=C(CCCCCCC(=O)Nc1ccccc1)NO [Vorinostat] (partner 1 µM)
Procedure, shortened: as §1

| Cell Line | relative viability (Trametinib + Alpelisib; first compound 0.0025 µM) | relative viability (Trametinib + Alpelisib; first compound 0.007906 µM) | relative viability (Trametinib + Alpelisib; first compound 0.025 µM) | relative viability (Trametinib + Alpelisib; first compound 0.07906 µM) | relative viability (Trametinib + Alpelisib; first compound 0.25 µM) | relative viability (Trametinib + Phenformin; first compound 0.0025 µM) | relative viability (Trametinib + Phenformin; first compound 0.007906 µM) | relative viability (Trametinib + Phenformin; first compound 0.025 µM) | relative viability (Trametinib + Phenformin; first compound 0.07906 µM) | relative viability (Trametinib + Phenformin; first compound 0.25 µM) | relative viability ([1]; first compound 0.02 µM) | relative viability ([1]; first compound 0.06325 µM) | relative viability ([1]; first compound 0.2 µM) | relative viability ([1]; first compound 0.6325 µM) | relative viability ([1]; first compound 2 µM) | relative viability ([2]; first compound 0.02 µM) | relative viability ([2]; first compound 0.06325 µM) | relative viability ([2]; first compound 0.2 µM) | relative viability ([2]; first compound 0.6325 µM) | relative viability ([2]; first compound 2 µM) |
| --- | --- | --- | --- | --- | --- | --- | --- | --- | --- | --- | --- | --- | --- | --- | --- | --- | --- | --- | --- | --- |
| NCI-H661 | 0.607 | 0.654 | 0.411 | 0.257 | 0.264 | 0.298 | 0.289 | 0.257 | 0.28 | 0.246 | 1.07 | 1.01 | 1.11 | 1.04 | 1.14 | 0.853 | 0.763 | 0.835 | 0.927 | 0.775 |
| NCI-H727 | 0.312 | 0.211 | 0.227 | 0.172 | 0.183 | 0.32 | 0.359 | 0.406 | 0.257 | 0.264 | 0.835 | 0.614 | 0.691 | 0.81 | 0.808 | 1.02 | 1.21 | 0.903 | 1.23 | 1.35 |
| NCI-H838 | 0.97 | 0.877 | – | 0.709 | 0.551 | 0.515 | 0.509 | 0.281 | 0.369 | 0.351 | 0.615 | 0.657 | 0.761 | 0.707 | 0.833 | 0.679 | 0.653 | 0.591 | 0.601 | 0.55 |
| NCI-H1355 | 0.68 | 0.627 | 0.356 | 0.388 | 0.352 | 0.394 | 0.415 | 0.322 | 0.382 | 0.308 | 0.909 | 0.97 | 0.992 | 0.675 | 0.819 | 0.581 | 0.581 | 0.653 | 0.513 | 0.534 |
| NCI-H1437 | 0.908 | 0.342 | 0.22 | 0.219 | 0.208 | 0.258 | 0.205 | 0.23 | 0.201 | 0.206 | 0.878 | 0.898 | 0.989 | 0.915 | 1.14 | 0.955 | 0.823 | 0.857 | 0.804 | 0.71 |
| NCI-H1651 | 0.901 | 0.864 | 0.775 | 0.597 | 0.66 | 0.26 | 0.293 | 0.296 | 0.288 | 0.182 | 0.804 | 0.905 | 0.876 | 0.819 | 0.895 | 0.656 | 0.573 | 0.571 | 0.563 | 0.537 |
| NCI-H1666 | 0.697 | 0.501 | 0.465 | 0.331 | 0.306 | 0.526 | 0.574 | 0.6 | 0.57 | 0.513 | 0.847 | 0.822 | 0.704 | 1.17 | 0.927 | 0.902 | 0.909 | 1.06 | 0.926 | 0.991 |
| NCI-H1734 | 0.627 | 0.712 | – | 0.631 | 0.444 | 0.289 | 0.292 | 0.217 | 0.245 | 0.206 | 0.665 | 0.677 | – | 0.696 | 0.744 | 0.73 | 0.712 | – | 0.796 | 0.747 |
| NCI-H1755 | 0.798 | 0.83 | 0.799 | 0.802 | 0.753 | 0.593 | 0.587 | 0.608 | 0.594 | 0.512 | 0.855 | 0.802 | 0.827 | 0.836 | 0.919 | 0.601 | 0.751 | 0.477 | 0.584 | 0.643 |
| NCI-H1915 | 1.06 | 0.906 | 0.6 | 0.528 | 0.254 | 0.38 | 0.306 | 0.249 | 0.304 | 0.141 | 0.767 | 0.873 | 0.87 | 1.07 | 0.973 | 0.502 | 0.501 | 0.513 | 0.442 | 0.493 |
| NCI-H1944 | 0.716 | 0.603 | 0.532 | 0.463 | 0.325 | 0.187 | 0.159 | 0.152 | 0.148 | 0.137 | 0.939 | 0.995 | – | 1.24 | 1.18 | 0.471 | 0.5 | – | 0.568 | 0.528 |
| NCI-H1975 | 0.547 | 0.415 | 0.301 | 0.223 | 0.268 | 0.386 | 0.308 | 0.291 | 0.234 | 0.124 | 0.749 | 0.939 | 0.915 | 0.817 | 0.796 | 0.775 | 0.745 | 0.708 | 0.725 | 0.668 |
| NCI-H1993 | 0.649 | 0.722 | 0.656 | 0.699 | 0.649 | 0.538 | 0.536 | 0.558 | 0.554 | 0.56 | 0.726 | 0.816 | 0.741 | 0.868 | 0.87 | 0.837 | 0.736 | 0.647 | 0.622 | 0.6 |
| NCI-H2009 | 0.88 | 0.72 | 0.444 | 0.485 | 0.362 | 0.394 | 0.302 | 0.231 | 0.213 | 0.215 | 0.958 | 0.97 | 1.05 | 1.15 | 1.14 | 0.69 | 0.671 | 0.748 | 0.766 | 0.683 |
| NCI-H2023 | 0.38 | 0.486 | 0.315 | 0.352 | 0.288 | 0.34 | 0.393 | 0.349 | 0.289 | 0.167 | 0.647 | 0.543 | 0.606 | 0.62 | 0.694 | 0.697 | 0.562 | – | 0.56 | 0.502 |
| NCI-H2085 | 0.916 | 0.757 | 0.635 | 0.655 | 0.608 | 0.588 | 0.509 | 0.332 | 0.464 | 0.25 | 0.738 | 0.892 | 0.752 | 0.868 | 0.803 | 0.723 | 0.757 | 0.746 | 0.735 | 0.784 |
